Measurements published in paper PMC12040169 (PLOS Biology, 2025).

Assay: in vitro
Conditions: human, hela cells, % viability
Work on `Oc1ccc(/C=N/Nc2nnc(-c3ccccc3)c(-c3ccccc3)n2)cc1` [CBK262011] yielded a viability at 28.5 h, 10 µM of 112%. `CC(C)(C)C(=O)N1CCC(c2nnc3n2CCCCC3)CC1` [CBK285311] showed a viability at 28.5 h, 10 µM of 88.7%. With `CO[C@@]12CC[C@@H](O)C[C@@H]1N(C(=O)c1cccc3c1NCCC3)CC2` [CBK306741] the viability at 28.5 h, 10 µM was 109%. `Cc1cccc(-n2nc3c4nonc4ccc3[n+]2[O-])c1C` [CBK264626] gave a viability at 28.5 h, 10 µM of 93.6%. Work on `CO[C@]1(c2ccc(Cl)cc2)CC[C@H](NCCCC(=O)c2ccc(F)cc2)CC1` [CBK015959C] yielded a viability at 28.5 h, 10 µM of 90.2%. `O=C(CSc1nnc(-c2cccnc2)o1)Nc1ccccc1` [CBK287742] showed a viability at 28.5 h, 10 µM of 82.6%. For `CC[n+]1c(C(C)(C)C)csc1NCC1CC1` [CBK011154B], the viability at 28.5 h, 10 µM was 106%. `CCCS(=O)(=O)n1ccn(-c2ccc(Cl)c(Cl)c2)c1=O` [CBK106667] gave a viability at 28.5 h, 10 µM of 110%. Compound `O=C(CSC1=NC(=O)C(Cc2ccccc2)C(=O)N1)Nc1ncccn1` (centres unmarked) [CBK263906] has a viability at 28.5 h, 10 µM of 120%. In the case of `Cc1ccc(C(CCO)Nc2ncnc3c2c(C)nn3C)cc1` (centres unmarked) [CBK307387], the viability at 28.5 h, 10 µM is reported as 82.1%. `O=C(c1ccc(-c2nccnc2N2CCN(CCO)CC2)cc1)N1CCOCC1` [CBK036812] gave a viability at 28.5 h, 10 µM of 92.1%. In the case of `CN1CCN(C(=O)c2ccc(-c3cccc(C(=O)NCCO)c3)nc2N(C)C)CC1` [CBK076581], the viability at 28.5 h, 10 µM is reported as 91.8%. `Cc1nn(Cc2c(F)cccc2Cl)c(C)c1NC(=O)c1cnn2c(C(F)F)cc(-c3ccccc3)nc12` [CBK267634] gave a viability at 28.5 h, 10 µM of 95.3%. Work on `Cc1ccc(S(=O)(=O)CC(=O)N2CCCC3(CCN(Cc4ccccc4)C3)C2)cc1` (centres unmarked) [CBK137098T] yielded a viability at 28.5 h, 10 µM of 90.7%. `O=C(O)CC(Cc1ccc(Cl)cc1)C(=O)Nc1ccccc1I` (centres unmarked) [CBK262021] gave a viability at 28.5 h, 10 µM of 90%. Work on `CCOCc1nc2c(c(NCc3cc(C)on3)n1)CCN(C(C)=O)CC2` [CBK307512] yielded a viability at 28.5 h, 10 µM of 87.4%. With `CCC1CCC2(CC1)NC(=O)N(Cc1nc(-c3cccs3)no1)C2=O` (centres unmarked) [CBK305005] the viability at 28.5 h, 10 µM was 92.6%. With `COc1ccc(C(=O)Nc2ccc3[nH]ccc3c2)cc1Cl` [CBK159681] the viability at 28.5 h, 10 µM was 94%. `CC1=C[C@@H](CNS(=O)(=O)c2cccs2)[C@H](C(C)C)C[C@H]1CC(=O)O` [CBK289210] gave a viability at 28.5 h, 10 µM of 92.4%. Work on `Cn1cc(Nc2nc(-c3ccc4c(c3)CCCN4S(C)(=O)=O)cs2)cn1` [CBK306236] yielded a viability at 28.5 h, 10 µM of 85.7%. In the case of `CC(C)Oc1ncccc1OCc1ccccc1` [CBK001457], the viability at 28.5 h, 10 µM is reported as 124%. In the case of `CCOC(=O)c1cnn(C2CCCN(Cc3cncs3)C2)c1` (centres unmarked) [CBK304039], the viability at 28.5 h, 10 µM is reported as 94.7%. Work on `COc1cc(C=O)ccc1OC(=O)c1nsc(Cl)c1Cl` [CBK266619] yielded a viability at 28.5 h, 10 µM of 89.1%. With `COc1cccc([C@H]2CN(C(=O)c3ccccc3)[C@@H]3CCN(Cc4cccc(F)c4)C[C@H]23)c1` [CBK285626] the viability at 28.5 h, 10 µM was 92.6%. For `O=C(Nc1cc(Oc2cccnc2)cc([N+](=O)[O-])c1)c1cc2nc(-c3ccco3)cc(C(F)(F)F)n2n1` [CBK262534], the viability at 28.5 h, 10 µM was 110%. Work on `c1ccc(C(Oc2nccnc2-c2cccs2)c2ccccc2)cc1` [CBK107061] yielded a viability at 28.5 h, 10 µM of 112%. Compound `NC(=O)N1CCC(C(=O)N2CC3(CCCC3)c3c(F)cccc32)CC1` [CBK304973] has a viability at 28.5 h, 10 µM of 108%. `NS(=O)(=O)c1ccc(NC(=S)NC(=O)/C=C/c2ccc([N+](=O)[O-])cc2)cc1` [CBK262176] showed a viability at 28.5 h, 10 µM of 99.2%. Work on `O=C(O)c1ccc2c(c1)C(=O)N(c1ccc(/C=C/C(=O)c3ccccc3)cc1)C2=O` [CBK261181] yielded a viability at 28.5 h, 10 µM of 79.6%. Compound `COCCNC(=O)[C@@H](C)C1CC[C@@]2(C)CC[C@H](NS(C)(=O)=O)[C@@H](C)[C@@H]2[C@H]1O` (some centres unmarked) [CBK289457] has a viability at 28.5 h, 10 µM of 93.5%. For `CC1(C)Cc2nc3[nH]nc(N)c3cc2CO1` [CBK261476], the viability at 28.5 h, 10 µM was 93.9%. In the case of `CC(C)(C)OCc1[nH]n(CCc2ccccc2)c(=O)c1Cc1c(Cl)cccc1Cl` [CBK091452], the viability at 28.5 h, 10 µM is reported as 89.3%. With `CCc1ccc(CC)c(S(=O)(=O)NC(CC(=O)O)c2ccccc2)c1` (centres unmarked) [CBK266208] the viability at 28.5 h, 10 µM was 102%. Compound `O=C(Cc1ccc(Cl)c(Cl)c1)N1CCN(c2ncccn2)CC1` [CBK144497] has a viability at 28.5 h, 10 µM of 98%. `Cc1ccc(-c2[nH]ncc2C(=O)c2ccccc2C)c(O)c1` [CBK287929] showed a viability at 28.5 h, 10 µM of 102%. For `O=C(O)CSc1nc2ccc(NC(=O)COc3ccc(Cl)cc3)cc2s1` [CBK299773], the viability at 28.5 h, 10 µM was 84.6%. `Cc1cccc(C)c1NC(=O)Nc1cc(N2CCNCC2)c2occc2c1` [CBK061748C] showed a viability at 28.5 h, 10 µM of 82.8%. For `CCc1ccc(NS(=O)(=O)c2cnn(CC)c2)cc1` [CBK270314], the viability at 28.5 h, 10 µM was 101%. For `Cc1ccc(C2(CN3CCN(Cc4cnn(C)c4)CC3)CC2)cc1` [CBK282480], the viability at 28.5 h, 10 µM was 96.3%. For `O=C(CSc1nc2sc3c(c2c(=O)n1CCc1ccccc1)CCCC3)Nc1ccccc1` [CBK267281], the viability at 28.5 h, 10 µM was 112%. With `Cc1ccc(NC(=O)c2cnccn2)c(C)n1` [CBK200291] the viability at 28.5 h, 10 µM was 97.2%. With `O=C(C1CCCC1)N1CCCC1c1nnc(-c2ccsc2)o1` (centres unmarked) [CBK285506] the viability at 28.5 h, 10 µM was 102%. With `CC(C)(C)NS(=O)(=O)c1ccc(NC(=O)c2cc(-c3ccccn3)nc3c(Cl)cccc23)cc1` [CBK267783] the viability at 28.5 h, 10 µM was 99.6%. `CC(=O)Nc1cccc(-c2cncc(-c3ccc(O)cc3)n2)c1` [CBK123795] gave a viability at 28.5 h, 10 µM of 77.8%. For `COc1cc(OC)nc(C(NC(=O)C2CCN(Cc3ccccc3F)CC2)c2ccc(Cl)cc2)n1` (centres unmarked) [CBK148152], the viability at 28.5 h, 10 µM was 98%. In the case of `CC(Cn1cccn1)NCC(=O)NC1(C#N)CCCCC1` (centres unmarked) [CBK304845], the viability at 28.5 h, 10 µM is reported as 102%. Work on `COc1cccc([C@H]2CN(C(=O)c3ccccc3)[C@@H]3CCN(Cc4ccsc4)C[C@H]23)c1` [CBK285611] yielded a viability at 28.5 h, 10 µM of 104%. `O=C1CC(c2cc(Br)ccc2F)c2scc(-c3ccccc3F)c2N1` (centres unmarked) [CBK294440] showed a viability at 28.5 h, 10 µM of 86.4%. `COc1ccc(OC)c(N(CC(=O)N2CCN(C)CC2)S(=O)(=O)c2ccccc2)c1` [CBK264131] showed a viability at 28.5 h, 10 µM of 98.8%. For `COCCNc1nc(-c2ccc3ccccc3c2)cn2ccnc12` [CBK066138], the viability at 28.5 h, 10 µM was 103%. Work on `O=C(Nc1nc(-c2ccccc2)ns1)c1ccncc1` [CBK113234] yielded a viability at 28.5 h, 10 µM of 81.6%. With `O=C(Nc1ccccn1)c1cnn(-c2ccc(Cl)cc2)c1C(F)(F)F` [CBK107442] the viability at 28.5 h, 10 µM was 92.2%. With `CC(=O)N1CCc2c(sc(NC(=O)c3ccc(C)cc3)c2C#N)C1` [CBK304411] the viability at 28.5 h, 10 µM was 52.6%. With `CS(=O)(=O)N(Cc1ccccc1)c1ccc(C(=O)Nc2ccc3c(c2)OCO3)cc1` [CBK033562] the viability at 28.5 h, 10 µM was 85.4%. Work on `CCOC(=O)CCNC(=O)c1ccccc1-n1cccc1` [CBK149611] yielded a viability at 28.5 h, 10 µM of 95.3%. For `CC1CC(C)CN(C(=O)c2cc(S(=O)(=O)N3CCOCC3)ccc2Cl)C1` (centres unmarked) [CBK305000], the viability at 28.5 h, 10 µM was 87%. `CCN1CC2(CCN(CCCC#N)CC2)c2ccccc21` [CBK136995] gave a viability at 28.5 h, 10 µM of 91.1%. `CN(C(=O)Cn1cccn1)c1nc2c(s1)CC(c1ccccc1)CC2` (centres unmarked) [CBK305173] showed a viability at 28.5 h, 10 µM of 102%.

Same assay, conditions: human, hela cells, % viability, bulk resorufin, single well
With `CC(=O)[C@H]1C[C@@H](CC(=O)N2CCC(C(C)=O)(c3ccccc3)CC2)C1(C)C` [CBK091323] the viability at 28.5 h, 10 µM was 109%. `CCOC(=O)C1(c2ccccc2)CCN(C(=O)c2cccc3[nH]ccc23)CC1` [CBK132193] gave a viability at 28.5 h, 10 µM of 95.7%. `CC(C)N(CCc1cc2ccccc2o1)C(C)C` [CBK011518C] showed a viability at 28.5 h, 10 µM of 113%. Work on `O=C(Cc1cccs1)N1CCC2(CC1)OCc1ccccc1O2` [CBK061086] yielded a viability at 28.5 h, 10 µM of 86.8%.
